# Measured values from ChEMBL document CHEMBL5528066, “Discovery of Novel N-(Anthracen-9-ylmethyl) Benzamide Derivatives as ZNF207 Inhibitors Promising in Treating Glioma” (J Med Chem, 2024).
# Activity calls are given as the source filed them. The calls are words filed in the database; no cut-off is given here.
# Key:
# [1] = system: Hs 683; assay: Antiproliferative activity against human Hs 683 cells assessed as inhibition of cell growth measured after 72 hrs by CCK-8 assay; assay type: functional, cell-based; conditions: Hs 683, 72 h
# [2] = system: U-251; assay: Antiproliferative activity against human U-251MG cells assessed as inhibition of cell growth measured after 72 hrs by CCK-8 assay; assay type: functional, cell-based; conditions: U-251, 72 h
# [3] = system: H4; assay: Antiproliferative activity against human H4 cells assessed as inhibition of cell growth measured after 72 hrs by CCK-8 assay; assay type: functional, cell-based; conditions: H4, 72 h
# [4] = system: LN-229; assay: Antiproliferative activity against human LN-229 cells assessed as inhibition of cell growth measured after 72 hrs by CCK-8 assay; assay type: functional, cell-based; conditions: LN-229, 72 h
# [5] = system: LN-229; assay: Antitumor activity against human LN-229 cells xenografted in BALB/c nude mouse assessed as reduction in proportion of Ki-67 positive cells at 150 mg/kg, ip administered twice a week and measured after 49 days by immunohistochemistry analysis; assay type: functional, organism-based; conditions: time 49.0 day
# [6] = system: LN-229-Luc; assay: Antitumor activity against human Ln-229-Luc cells xenografted in BALB/c nude mouse assessed as increase in overall survival time at 150 mg/kg, ip administered twice a week and measured after 3 to 31 days; assay type: functional, organism-based; conditions: time 3-31 day
# [7] = system: LN-229; assay: Antitumor activity against human LN-229 cells xenografted in BALB/c nude mouse assessed as tumor growth inhibition at 150 mg/kg, ip administered twice a week and measured every 2 days for 49 days relative to control; assay type: functional; conditions: LN-229, 1176 h, time 49 day, read-out: TGI
# [8] = target: BUB3-interacting and GLEBS motif-containing protein ZNF207 (Homo sapiens, UniProt O43670); assay: Binding affinity to human ZNF207 assessed as dissociation constant by SPR analysis
# BUB3-interacting and GLEBS motif-containing protein ZNF207, sequence (O43670 whole entry): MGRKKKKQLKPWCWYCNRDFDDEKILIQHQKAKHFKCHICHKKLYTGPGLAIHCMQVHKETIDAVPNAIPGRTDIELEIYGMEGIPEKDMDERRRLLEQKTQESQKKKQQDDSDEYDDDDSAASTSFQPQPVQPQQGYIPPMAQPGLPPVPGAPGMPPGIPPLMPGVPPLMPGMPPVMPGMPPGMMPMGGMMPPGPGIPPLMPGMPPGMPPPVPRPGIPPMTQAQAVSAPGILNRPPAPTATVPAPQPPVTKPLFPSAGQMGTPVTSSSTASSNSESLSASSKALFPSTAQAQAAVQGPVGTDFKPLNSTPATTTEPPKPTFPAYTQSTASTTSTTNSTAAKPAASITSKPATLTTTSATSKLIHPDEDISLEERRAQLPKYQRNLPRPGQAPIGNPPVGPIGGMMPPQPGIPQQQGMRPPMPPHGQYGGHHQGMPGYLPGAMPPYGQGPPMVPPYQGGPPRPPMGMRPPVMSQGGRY
SMILES,IC50 [2],Kd [8],IC50 [1],IC50 [3],IC50 [4],Activity [5],Activity [6],inhibition in vivo at 150 mg/kg [7]
N#CC1(C(=O)NCCCc2ccccc2)CC2(Br)c3ccccc3C1c1ccccc12 (racemic),45.8 µM,–,> 80 µM,49 µM,19.8 µM,–,–,–
CC12CC(C#N)(C(=O)NCCc3ccc(F)cc3)C(c3ccccc31)c1ccccc12 (racemic),18.7 µM,–,24.6 µM,22.3 µM,28.9 µM,–,–,–
N#CC1(C(=O)NCCc2ccc(F)cc2)CC2(CO)c3ccccc3C1c1ccccc12 (racemic),39.8 µM,–,21.8 µM,30.7 µM,15 µM,–,–,–
N#CC1(C(=O)NCCc2ccccc2F)CC2(Br)c3ccccc3C1c1ccccc12 (racemic),> 80 µM,–,> 80 µM,> 80 µM,> 80 µM,–,–,–
Cn1nnc2c(C(N)=O)ncn2c1=O [TEMOZOLOMIDE],43.5 µM,–,47.2 µM,47.9 µM,54.1 µM,Active,Active,69.6%
N#CC1(C(=O)NCCc2ccc(Br)cc2)CC2(Br)c3ccccc3C1c1ccccc12 (racemic),30 µM,–,8.43 µM,10.3 µM,9.73 µM,–,–,–
N#CC1(C(=O)NCCS(=O)(=O)Nc2ccc(F)cc2)CC2(Br)c3ccccc3C1c1ccccc12 (racemic),21.2 µM,–,17.8 µM,21.9 µM,12.7 µM,–,–,–
N#CC1(C(=O)NCCc2ccc(F)cc2)CC2(CCl)c3ccccc3C1c1ccccc12 (racemic),34.9 µM,–,52.8 µM,32.6 µM,60.2 µM,–,–,–
N#CC1(C(=O)NCCc2ccc(F)cc2)CC2(Br)c3ccccc3C1(Br)c1ccccc12 (racemic),> 80 µM,–,> 80 µM,54 µM,> 80 µM,–,–,–
O=C(NCCC1CCN(Cc2ccccc2)CC1)C1(Cl)CC2(Br)c3ccccc3C1c1ccccc12 (racemic),24.1 µM,–,38.7 µM,19.1 µM,12.4 µM,–,–,–
O=C(NCCc1ccc(F)cc1)C1(Cl)CC2(Br)c3ccccc3C1c1ccccc12 (racemic),> 80 µM,–,> 80 µM,> 80 µM,> 80 µM,–,–,–
N#CC1(C(=O)NC2CCN(Cc3ccccc3)CC2)CC2(Br)c3ccccc3C1c1ccccc12 (racemic),25.1 µM,–,11.3 µM,9.84 µM,7.36 µM,–,–,–
N#CC1(C(=O)NCC2CCN(Cc3ccccc3)CC2)CC2(Br)c3ccccc3C1c1ccccc12 (racemic),15.7 µM,–,14.9 µM,3.32 µM,5.94 µM,–,–,–
CC(=O)C12CC(C#N)(C(=O)NCCc3ccc(F)cc3)C(c3ccccc31)c1ccccc12 (racemic),18.8 µM,–,20.7 µM,24.7 µM,29.5 µM,–,–,–
N#CC1(C(=O)NCCS(=O)(=O)Nc2ccccc2)CC2(Br)c3ccccc3C1c1ccccc12 (racemic),23.2 µM,–,15.2 µM,22.7 µM,26.6 µM,–,–,–
COc1cc(NC(=O)C2(C#N)CC3c4ccccc4C2c2ccccc23)cc(OC)c1 (racemic),> 80 µM,–,> 80 µM,> 80 µM,> 80 µM,–,–,–
N#CC1(C(=O)NCCC2CCN(Cc3ccc(F)cc3)CC2)CC2(Br)c3ccccc3C1c1ccccc12 (racemic),18.1 µM,–,21.9 µM,18 µM,18.7 µM,–,–,–
N#CC1(C(=O)NCCc2ccc(F)cc2)CC2(Br)c3ccccc3C1c1ccccc12 (racemic),21.4 µM,–,19.8 µM,15.3 µM,14.6 µM,–,–,–
N#CC1(C(=O)NCCCc2ccc(Br)cc2)CC2(Br)c3ccccc3C1c1ccccc12 (racemic),37.7 µM,–,47.3 µM,53.1 µM,24.6 µM,–,–,–
N#CC1(C(=O)NCCSc2ccccc2)CC2(Br)c3ccccc3C1c1ccccc12 (racemic),16.8 µM,–,11.6 µM,16.9 µM,14.4 µM,–,–,–
N#CC1(C(=O)NCCS(=O)(=O)c2ccc(Cl)cc2)CC2(Br)c3ccccc3C1c1ccccc12 (racemic),23.5 µM,–,10.4 µM,15.3 µM,9.14 µM,–,–,–
N#CC1(C(=O)NCC2CCN(Cc3ccc(F)cc3)CC2)CC2(Br)c3ccccc3C1c1ccccc12 (racemic),> 80 µM,–,> 80 µM,> 80 µM,> 80 µM,–,–,–
COc1cc(NC(=O)C2(C#N)CC3c4ccccc4C2c2ccccc23)cc(OC)c1OC (racemic),> 80 µM,–,> 80 µM,> 80 µM,> 80 µM,–,–,–
N#CC1(C(=O)NCCC(=O)Nc2ccc(F)cc2)CC2(Br)c3ccccc3C1c1ccccc12 (racemic),49.8 µM,–,12.6 µM,15.8 µM,14.6 µM,–,–,–
N#CC1(C(=O)NCCc2ccc(Cl)cc2)CC2(Br)c3ccccc3C1c1ccccc12 (racemic),24 µM,–,23.1 µM,25 µM,7.85 µM,–,–,–

# Now from value to compound, other results behind:
IC50 [2],Kd [8],SMILES,IC50 [1],IC50 [3],IC50 [4],Activity [5],Activity [6],inhibition in vivo at 150 mg/kg [7]
40.5 µM,–,N#CC1(C(=O)NCCc2cccc(F)c2)CC2c3ccccc3C1c1ccccc12 (racemic),46.6 µM,50 µM,33 µM,–,–,–
48.3 µM,–,N#CC1(C(=O)NCCc2ccc([N+](=O)[O-])cc2)CC2c3ccccc3C1c1ccccc12 (racemic),> 80 µM,36.9 µM,23.8 µM,–,–,–
> 80 µM,–,N#CC1(C(=O)Nc2ccc(F)cc2)CC2c3ccccc3C1c1ccccc12 (racemic),> 80 µM,> 80 µM,> 80 µM,–,–,–
> 80 µM,–,Cc1ccccc1NC(=O)C1(C#N)CC2c3ccccc3C1c1ccccc12 (racemic),> 80 µM,> 80 µM,> 80 µM,–,–,–
> 80 µM,–,COc1ccc(NC(=O)C2(C#N)CC3c4ccccc4C2c2ccccc23)cc1 (racemic),> 80 µM,> 80 µM,> 80 µM,–,–,–
13.5 µM,2.4 µM,N#CC1(C(=O)Nc2ccc([N+](=O)[O-])cc2)CC2c3ccccc3C1c1ccccc12 (racemic),26.4 µM,25.3 µM,19.4 µM,–,–,–
> 80 µM,–,N#CC1(C(=O)NCc2cccc(Cl)c2Cl)CC2c3ccccc3C1c1ccccc12 (racemic),> 80 µM,> 80 µM,> 80 µM,–,–,–
> 80 µM,–,N#CC1(C(=O)NCCc2ccc3c(c2)OCO3)CC2c3ccccc3C1c1ccccc12 (racemic),44 µM,> 80 µM,36.8 µM,–,–,–
35.9 µM,–,N#CC1(C(=O)NCCC2CCN(Cc3ccccc3)CC2)CC2c3ccccc3C1c1ccccc12 (racemic),19.1 µM,26.6 µM,11.6 µM,–,–,–
> 80 µM,–,Cc1ccc(CCNC(=O)C2(C#N)CC3c4ccccc4C2c2ccccc23)cc1 (racemic),39.9 µM,> 80 µM,60.8 µM,–,–,–
54.3 µM,–,N#CC1(C(=O)NCCc2cccc(Cl)c2)CC2c3ccccc3C1c1ccccc12 (racemic),> 80 µM,18.8 µM,36.6 µM,–,–,–
38.1 µM,–,N#CC1(C(=O)NCCc2ccccc2F)CC2c3ccccc3C1c1ccccc12 (racemic),> 80 µM,26 µM,49 µM,–,–,–
52.3 µM,–,N#CC1(C(=O)NCCc2ccc(F)cc2)CC2c3ccccc3C1c1ccccc12 (racemic),43.6 µM,35.2 µM,32.5 µM,–,–,–
72.6 µM,–,N#CC1(C(=O)Nc2ccc3c(c2)OCO3)CC2c3ccccc3C1c1ccccc12 (racemic),> 80 µM,20 µM,45.5 µM,–,–,–
> 80 µM,–,COc1ccc(NC(=O)C2(C#N)CC3c4ccccc4C2c2ccccc23)cc1C (racemic),> 80 µM,> 80 µM,> 80 µM,–,–,–
> 80 µM,–,N#CC1(C(=O)NCc2ccccc2)CC2c3ccccc3C1c1ccccc12 (racemic),> 80 µM,> 80 µM,> 80 µM,–,–,–
> 80 µM,–,N#CC1(C(=O)Nc2ccc(N)cc2)CC2c3ccccc3C1c1ccccc12 (racemic),> 80 µM,61.7 µM,> 80 µM,–,–,–
